Results taken from ChEMBL document CHEMBL4834469, “Balancing Properties with Carboxylates: A Lead Optimization Campaign for Selective and Orally Active CDK9 Inhibitors” (ACS Med Chem Lett, 2021).
pIC50: −log10 of the molar value.

Tests used:
in vitro [1] = details: human, plasma
Description: Plasma protein binding in human

in vivo [2] = details: rat, iv, 1 mg/kg
Description: Volume of distribution at steady state in rat at 1 mg/kg, iv

in vitro [3] = details: rat, plasma
Description: Plasma protein binding in rat

in vivo [4] = details: rat, po, 1 mg/kg
in vivo [5] = details: Sprague-Dawley, rat, iv, 10 mg/kg
Description: Plasma concentration in anesthetized Sprague-Dawley rat upto 10 mg/kg, iv administered as single dose measured after 30 mins

in vivo [6] = details: rat, po, 1 mg/kg; remark: listed apart in the source
in vivo [7] = details: rat, iv, 1 mg/kg; remark: listed apart in the source
Description: Half life in rat at 1 mg/kg, iv

NCI-H929 = assay: cells; details: Homo sapiens, NCI-H929, 24 h
Description: Antiproliferative activity against human NCI-H929 cells assessed as reduction in cell viability incubated for 24 hrs by Cell-Titer Glo assay

| pIC50 (NCI-H929) | Structure (SMILES) | fraction unbound (in vitro [1]) | Vd (in vivo [2]) [L/kg] | fraction unbound (in vitro [3]) | bioavailability (in vivo [4]) [%] | concentration at 0.5 h (in vivo [5]) [ng/mL] | AUC (in vivo [6]) [ng·h/mL] | half-life (in vivo [7]) [h] |
| --- | --- | --- | --- | --- | --- | --- | --- | --- |
|  | COc1ccc(F)cc1-c1ccnc2[nH]c(C3=CCN([C@H]4CC[C@H](C(=O)O)CC4)CC3)cc12 | 0.079 | 1.9 | 0.09 | 23 | 5500 | 400 | 3.3 |
|  | COc1ccc(F)cc1-c1ccnc2[nH]c(C3=CCN([C@H]4CC[C@@H](CC(=O)O)CC4)CC3)cc12 | 0.036 | 3.4 | 0.183 | 7.9 |  | 40 | 1.7 |
| 6.77 | COc1ccc(F)cc1-c1ccnc2[nH]c(C3=CCC(N4CCC(C(=O)O)CC4)CC3)cc12 (centres undefined) |  |  |  |  |  |  |  |
|  | COc1ccc(F)cc1-c1c(F)cnc2[nH]c(C3=CCN([C@H]4CC[C@@H](C(=O)O)CC4)CC3)cc12 | 0.066 | 2.6 | 0.099 | 13 |  | 140 | 3 |
|  | COc1ccc(F)cc1-c1c(F)cnc2[nH]c(C3=CCN([C@H]4CC[C@H](CC(=O)O)CC4)CC3)cc12 | 0.041 | 2.9 | 0.082 | 11 |  | 140 | 2.8 |
|  | CCOC(=O)NS(=O)(=O)N1CC=C(c2cc3c(-c4cc(F)ccc4OC)ccnc3[nH]2)CC1 | < 0.001 | 0.29 | 0.042 | 64 |  | 2400 | 1.6 |
|  | COc1ccc(F)cc1-c1ccnc2[nH]c(C3=CCC(C(=O)O)CC3)cc12 (centres undefined) | 0.002 | 0.51 | 0.004 | 70 |  | 3100 | 2.1 |
|  | COc1ccc(F)cc1-c1ccnc2[nH]c(C3=CCC(N[C@@H](C(=O)O)C(C)C)CC3)cc12 (some centres undefined) | 0.023 | 1 | 0.057 | 0.2 |  | < 10 | 0.68 |
|  | COc1ccc(F)cc1-c1c(F)cnc2[nH]c(C3=CCN([C@H]4CC[C@H](C(=O)O)CC4)CC3)cc12 | 0.059 | 2.7 | 0.106 | 28 | 9000 | 450 | 3.5 |
|  | COc1ccc(F)cc1-c1ccnc2[nH]c(C3=CCN([C@H]4CC[C@H](CC(=O)O)CC4)CC3)cc12 | 0.037 | 4.5 | 0.087 | 21 |  | 160 | 2.8 |
|  | COc1ccc(F)cc1-c1ccnc2[nH]c(C3=CCN([C@H]4CC[C@@H](C(=O)O)CC4)CC3)cc12 | 0.074 | 4.7 | 0.16 | 20 |  | 160 | 3.2 |
| < 5.00 | COc1ccc(F)cc1-c1ccnc2[nH]c(C3=CCN(c4ccc(CC(=O)O)cc4)CC3)cc12 |  |  |  |  |  |  |  |
